Biological target: full-length human O-GlcNAc-β-N-acetylglucosaminidase (OGA) (Homo sapiens (Human), UniProt O60502)
Experiment: In Vitro Human OGA Enzyme Assay
Assay type: biochemical
Conditions: His-OGA enzyme, FD-GlcNAc substrate 6.7 μM, 30 min pre-incubation, 60 min at room temperature, pH 7
Description: In Vitro Human OGA Enzyme Assay
The nucleotide sequence encoding full-length human O-GlcNAc-β-N-acetylglucosaminidase (NM_012215) is inserted into pFastBac1 (Invitrogen) vector with an N-terminal poly-histidine (HIS) tag. Baculovirus generation is carried out according to the Bac-to-Bac Baculovirus Expression system (Invitrogen) protocol. Sf9 cells are infected at 1.5×10^6 cells/mL using 10 mL of P1 virus per Liter of culture and incubated at 28° C. for 48 hrs. Cells are spun down, rinsed with PBS and the pellets stored at −80° C. The above OGA protein (His-OGA) is purified as follows: 4 L of cells are lysed in 200 mL of buffer containing 50 mM Tris, pH 8.0, 300 mM NaCl, 10% glycerol, 10 mM imidazole, 1 mM dithiothreitol (DTT), 0.1% Triton™ X-100, 4 tablets of protease inhibitors (complete EDTA-Free, Roche) for 45 min at 4° C. This cell lysate is then spun for 40 min at 16500 rpm at 4° C., and supernatant incubated with 6 mL of Ni-NTA resin (nickel-nitrilotriacetic acid) for 2 h at 4° C.
Resin is then packed onto column and washed with 50 mM Tris, pH 8.0, 300 mM NaCl, 10% glycerol, 10 mM imidazole, 0.1% Triton™ X-100, 1 mM DTT, followed by 50 mM Tris, pH 8.0, 150 mM NaCl, 10 mM imidazole, 10% glycerol, 1 mM DTT. The proteins are eluted with 50 mM Tris, pH 8.0, 150 mM NaCl, 300 mM imidazole, 10% glycerol, 1 mM DTT. Pooled His-OGA containing fractions are concentrated to 6 ml and loaded onto Superdex75 (16/60). The protein is eluted with 50 mM Tris, pH 8.0, 150 mM NaCl, 10% glycerol, 2 mM DTT. Fractions containing His-OGA are pooled and protein concentration measured with BCA ([…]).
The OGA enzyme catalyses the removal of O-GlcNAc from nucleocytoplasmic proteins. To measure this activity Fluorescein di-N-acetyl-β-N-acetyl-D-glucosaminide (FD-GlcNAc, Kim, Eun Ju; Kang, Dae Ook; Love, Dona C.; Hanover, John A. Carbohydrate Research (2006), 341(8), 971-982) is used as a substrate at a final concentration of 6.7 μM. This fluorogenic substrate becomes fluorescent upon cleavage by OGA, so that the enzyme activity can be measured by the increase in fluorescence detected at 535 nm (excitation at 485 nm).
The assay buffer is prepared to give a final concentration of 50 mM […], 0.01% bovine serum albumin and 0.01% Triton™ X-100 in water, at pH 7. Compounds to be tested are diluted in pure dimethyl sulfoxide (DMSO) using ten point concentration response curves. Maximal compound concentration in the reaction mixture is 30 or 1 μM. Compounds at the appropriate concentration are pre-incubated with OGA enzyme for 30 minutes before the reaction is started by the addition of substrate. The final enzyme concentration is 3.24 nM or 0.5 nM, for the 30 or 1 μM maximal compound concentration, respectively. Reactions are allowed to proceed for 60 min at room temperature. Then, without stopping the reaction, fluorescence is read. IC50 values are calculated by plotting the normalized data vs. log of the compound and fitting the data using a four parameter logistic equation.
The compounds of Examples 1 through 6 were tested essentially as described above.

Sequence of full-length human O-GlcNAc-β-N-acetylglucosaminidase (OGA) (O60502 whole entry): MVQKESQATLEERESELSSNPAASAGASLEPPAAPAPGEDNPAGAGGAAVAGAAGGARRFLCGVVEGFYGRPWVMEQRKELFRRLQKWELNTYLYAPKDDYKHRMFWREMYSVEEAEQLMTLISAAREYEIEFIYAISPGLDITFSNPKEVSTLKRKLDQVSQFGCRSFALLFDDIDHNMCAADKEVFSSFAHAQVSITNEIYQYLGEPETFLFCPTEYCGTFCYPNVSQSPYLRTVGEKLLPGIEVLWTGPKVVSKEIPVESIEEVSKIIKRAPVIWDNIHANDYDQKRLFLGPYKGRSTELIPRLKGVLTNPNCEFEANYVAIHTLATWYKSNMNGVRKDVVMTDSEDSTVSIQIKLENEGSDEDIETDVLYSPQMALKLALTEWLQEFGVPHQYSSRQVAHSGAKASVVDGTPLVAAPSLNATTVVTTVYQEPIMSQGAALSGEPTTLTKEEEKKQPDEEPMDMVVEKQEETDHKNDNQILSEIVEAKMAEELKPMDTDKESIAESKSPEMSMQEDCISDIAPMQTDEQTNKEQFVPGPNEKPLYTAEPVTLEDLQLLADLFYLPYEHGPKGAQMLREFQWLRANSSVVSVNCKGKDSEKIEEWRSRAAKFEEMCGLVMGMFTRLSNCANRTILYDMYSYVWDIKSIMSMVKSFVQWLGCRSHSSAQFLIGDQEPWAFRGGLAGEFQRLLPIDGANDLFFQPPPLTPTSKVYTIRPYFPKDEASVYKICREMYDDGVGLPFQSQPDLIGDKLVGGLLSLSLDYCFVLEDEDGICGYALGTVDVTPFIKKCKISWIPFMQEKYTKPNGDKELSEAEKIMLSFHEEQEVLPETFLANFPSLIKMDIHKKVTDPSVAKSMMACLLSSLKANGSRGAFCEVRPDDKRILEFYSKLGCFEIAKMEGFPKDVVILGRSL

| Compound | IC50 |
| --- | --- |
| CC(=O)N1Cc2cnc(O[C@@H]3C[C@H](C)N(Cc4cc5nc(C)sc5cc4F)C3)nc2C1 [Example 1, 1-(2-(((3R,5S)-1-((6-fluoro-2-methylbenzo[d]thiazol-5-yl)methyl)-5-methylpyrrolidin-3-yl)oxy)-5,7-dihydro-6H-pyrrolo[3,4-d]pyrimidin-6-yl)ethan-1-one] | 0.465 ± 0.224 nM |
| CC(=O)N1Cc2ccc(O[C@@H]3C[C@H](C)N(Cc4cc5nc(C)sc5cc4F)C3)nc2C1 [Example 2, 1-(2-(((3R,5S)-1-((6-fluoro-2-methylbenzo[d]thiazol-5-yl)methyl)-5-methylpyrrolidin-3-yl)oxy)-5,7-dihydro-6H-pyrrolo[3,4-b]pyridin-6-yl)ethan-1-one] | 0.214 ± 0.037 nM |
| CC(=O)N1Cc2ccc(O[C@@H]3C[C@H](C)N([C@@H](C)c4cc5nc(C)sc5cc4F)C3)nc2C1 [Example 6, 1-[2-[(3R,5S)-1-[(1S)-1-(6-fluoro-2-methyl-1,3-benzothiazol-5-yl)ethyl]-5-methyl-pyrrolidin-3-yl]oxy-5,7-dihydropyrrolo[3,4-b]pyridin-6-yl]ethanone] | 0.385 ± 0.088 nM |
| CC(=O)N1Cc2cnc(O[C@@H]3C[C@H](C)N(Cc4cc5nc(C)sc5cc4F)C3)cc2C1 [Example 3, 1-[6-[(3R,5S)-1-[(6-fluoro-2-methyl-1,3-benzothiazol-5-yl)methyl]-5-methyl-pyrrolidin-3-yl]oxy-1,3-dihydropyrrolo[3,4-c]pyridin-2-yl]ethanone] | 0.782 ± 0.087 nM |
| CC(=O)N1Cc2cnc(O[C@@H]3C[C@H](C)N([C@@H](C)c4cc5nc(C)sc5cc4F)C3)nc2C1 [Example 5, 1-[2-[(3R,5S)-1-[(1S)-1-(6-fluoro-2-methyl-1,3-benzothiazol-5-yl)ethyl]-5-methyl-pyrrolidin-3-yl]oxy-5,7-dihydropyrrolo[3,4-d]pyrimidin-6-yl]ethanone] | 0.495 ± 0.109 nM |
| CC(=O)N1Cc2cc(O[C@@H]3C[C@H](C)N(Cc4cc5nc(C)sc5cc4F)C3)cnc2C1 [Example 4, 1-[3-[(3R,5S)-1-[(6-fluoro-2-methyl-1,3-benzothiazol-5-yl)methyl]-5-methyl-pyrrolidin-3-yl]oxy-5,7-dihydropyrrolo[3,4-b]pyridin-6-yl]ethanone] | 0.592 ± 0.068 nM |

— patent publication US10752632B2, “6-fluoro 2-methylbenzo[d]thiazol-5-yl compounds” (Eli Lilly and Company, priority 2018, dated 2020)
